ChEMBL document CHEMBL5030564, “Multifunctional Antibiotic-Host Defense Peptide Conjugate Kills Bacteria, Eradicates Biofilms, and Modulates the Innate Immune Response” (J Med Chem, 2021)
Converted amounts (≈) assume the structure as drawn. The source made the active and inactive calls. No cut-off for these calls is given here. Residues, ends and D or L forms follow the SMILES beside them.

Columns and labels:
[1] = test system: Staphylococcus aureus; test: Antimicrobial activity against methicillin-resistant Staphylococcus aureus USA300 LAC assessed as inhibition of bacterial growth incubated for 18 to 20 hrs by broth microdilution assay; assay type: functional; conditions: MRSA USA300 LAC, time 18-20 hrs
[2] = test system: Staphylococcus aureus; test: Antimicrobial activity against methicillin-resistant Staphylococcus aureus SAP 0017 assessed as inhibition of bacterial growth incubated for 18 to 20 hrs by broth microdilution assay; assay type: functional; conditions: time 18-20 hrs
[3] = test system: Staphylococcus epidermidis; test: Antimicrobial activity against Staphylococcus epidermidis ATCC14990 assessed as inhibition of bacterial growth incubated for 18 to 20 hrs by broth microdilution assay; assay type: functional; conditions: time 18-20 hrs
[4] = test system: Enterococcus faecium; test: Antimicrobial activity against Enterococcus faecium assessed as inhibition of bacterial growth incubated for 18 to 20 hrs by broth microdilution assay; assay type: functional; conditions: time 18-20 hrs
[5] = test system: Staphylococcus aureus; test: Antibiofilm activity against methicillin-resistant Staphylococcus aureus USA300 LAC assessed as inhibition of CV-staining/biomass formation measured after overnight incubation by biofilm inhibition assay; assay type: functional, MRSA USA300 LAC
[6] = test system: Staphylococcus aureus; test: Antibiofilm activity against methicillin-resistant Staphylococcus aureus SAP 0017 assessed as inhibition of CV-staining/biomass formation measured after overnight incubation by biofilm inhibition assay; assay type: functional
[7] = test system: Staphylococcus epidermidis; test: Antibiofilm activity against Staphylococcus epidermidis ATCC14990 assessed as inhibition of CV-staining/biomass formation measured after overnight incubation by biofilm inhibition assay; assay type: functional
[8] = test system: Enterococcus faecium; test: Antibiofilm activity against Enterococcus faecium assessed as inhibition of CV-staining/biomass formation measured after overnight incubation by biofilm inhibition assay; assay type: functional
[9] = test system: Staphylococcus aureus; test: Antibiofilm activity against methicillin-resistant Staphylococcus aureus USA300 LAC assessed as minimal biofilm eradication concentration required for complete inhibition of bacterial growth by Calgary biofilm device assay; assay type: functional, MRSA USA300 LAC
[10] = test system: Staphylococcus aureus; test: Antibiofilm activity against methicillin-resistant Staphylococcus aureus SAP 0017 assessed as biofilm eradication concentration by Calgary biofilm device assay; assay type: functional
[11] = test system: Staphylococcus epidermidis; test: Antibiofilm activity against Staphylococcus epidermidis ATCC14990 assessed as biofilm eradication concentration by Calgary biofilm device assay; assay type: functional
[12] = test system: Enterococcus faecium; test: Antibiofilm activity against Enterococcus faecium assessed as biofilm eradication concentration by Calgary biofilm device assay; assay type: functional
[13] = test system: Staphylococcus aureus; test: Antibiofilm activity against methicillin-resistant Staphylococcus aureus USA300 LAC assessed as disruption of mature biofilms by TCC bacterial metabolic assay; assay type: functional, MRSA USA300 LAC
[14] = test system: Staphylococcus aureus; test: Antibiofilm activity against methicillin-resistant Staphylococcus aureus SAP 0017 assessed as disruption of mature biofilms by TCC bacterial metabolic assay; assay type: functional
[15] = test system: Staphylococcus epidermidis; test: Antibiofilm activity against Staphylococcus epidermidis ATCC14990 assessed as disruption of mature biofilms by TCC bacterial metabolic assay; assay type: functional
[16] = test system: Enterococcus faecium; test: Antibiofilm activity against Enterococcus faecium assessed as reduction in viable biofilm cell counts by TCC bacterial metabolic assay; assay type: functional, organism-based
[17] = test system: Staphylococcus aureus; test: Antibiofilm activity against methicillin-resistant Staphylococcus aureus USA300 LAC assessed as rough surfaces sprinkled with debris at 16 ug/ml by scanning electron microscopy based assay; assay type: functional, organism-based; conditions: MRSA USA300 LAC, dose 16.0 µg/ml
[18] = test system: Staphylococcus aureus; test: Antibiofilm activity against methicillin-resistant Staphylococcus aureus USA300 LAC assessed as killing biofilm cells at 16 ug/ml incubated for 4 hrs after SYTO9/PI staining by confocal microscopy; assay type: functional, MRSA USA300 LAC; conditions: dose 16 µg/ml
[19] = test system: Staphylococcus aureus; test: Antibacterial activity against methicillin resistant Staphylococcus aureus USA300 LAC assessed as change in susceptibility at sub-MIC treated over 14 serial passages by resistance development assay; assay type: functional, organism-based; conditions: MRSA USA300 LAC
[20] = test system: Staphylococcus aureus; test: Antibacterial activity against methicillin-resistant Staphylococcus aureus USA300 LAC assessed as measuring killing rate at 16 ug/ml measured with in 30 mins by time kill assay; assay type: functional, organism-based; conditions: MRSA USA300 LAC, dose 16.0 µg/ml
[21] = Cytotoxicity against PBMC (unknown origin) at 100 ug incubated for 24 hrs by lactate dehydrogenase assay; assay type: tissue-based; conditions: dose 100 µg
[22] = test system: PBMC; test: Immunomodulatory activity in PBMC (unknown origin) assessed as increase in MCP-1 production level at 12.5 ug/ml incubated for 24 hrs by ELISA; assay type: functional, tissue-based; conditions: dose 12.5 µg/ml
[23] = (§1) Immunomodulatory activity in PBMC (unknown origin) assessed as reduction in LPS-induced IL-1beta level by ELISA; assay type: functional; parameters: scale not given: the % may be the effect or the level left
[24] = Immunomodulatory activity in PBMC (unknown origin) assessed as reduction in LPS-induced IL-10 level by ELISA; assay type: functional; parameters: scale not given: the % may be the effect or the level left
[25] = test system: Staphylococcus aureus; test: Antibiofilm activity against methicillin resistant Staphylococcus aureus-lux biofilm in N/TERT-based epidermal model assessed as reduction in luminescence treated at 300 ug/ml topically incubated for 4 hrs by ChemiDoc imaging system; assay type: functional, organism-based; conditions: dose 300.0 µg/ml
[26] = test system: Staphylococcus aureus; test: Antibiofilm activity against methicillin resistant Staphylococcus aureus in N/TERT-based epidermal model assessed as reduction in bacterial clusters by H&E staining based histological analysis; assay type: functional, organism-based
[27] = test system: Staphylococcus aureus; test: Antimicrobial activity against methicillin resistant Staphylococcus aureus in N/TERT-based epidermal model assessed as reduction in bacterial count in epidermis; assay type: functional, organism-based
[28] = Toxicity in methicillin resistant Staphylococcus aureus USA300 infected CD-1 mouse assessed as reduction in bacterial load at 2.5 mg/kg, ILES after 3 days; assay type: organism-based; conditions: in vivo, other, 72 h, time 3 day
[29] = Toxicity in Staphylococcus epidermidis infected CD-1 mouse assessed as reduction in abscess size at 2.5 mg/kg, ILES after 3 days; assay type: organism-based; parameters: scale not given: the % may be the effect or the level left; conditions: in vivo, other, 72 h, time 3 day
[30] = Toxicity in Staphylococcus epidermidis infected CD-1 mouse assessed as reduction in bacterial load at 2.5 mg/kg, ILES after 3 days; assay type: organism-based; conditions: in vivo, other, 72 h, time 3 day
[31] = test system: PBMC; test: as §1; assay type: functional
[32] = Toxicity in methicillin resistant Staphylococcus aureus USA300 infected CD-1 mouse assessed as reduction in bacterial load at 0.25 mg/kg, ILES after 3 days; assay type: organism-based; conditions: in vivo, other, 72 h, time 3 day
[33] = Toxicity in Staphylococcus epidermidis infected CD-1 mouse assessed as reduction in bacterial load at 0.25 mg/kg, ILES after 3 days; assay type: organism-based; conditions: in vivo, other, 72 h, time 3 day

Compound `CC[C@H](C)[C@H](NC(=O)[C@H](CCCNC(=N)N)NC(=O)[C@@H](NC(=O)[C@H](C)NC(=O)[C@@H](NC(=O)[C@@H](NC(=O)[C@H](CC(C)C)NC(=O)[C@H](CCCNC(=N)N)NC(=O)[C@@H](NC(=O)[C@H]1NC(=O)[C@H]2NC(=O)[C@H](NC(=O)[C@@H]3NC(=O)[C@H](CC(N)=O)NC(=O)[C@H](NC(=O)[C@@H](CC(C)C)NC)[C@H](O)c4ccc(c(Cl)c4)Oc4cc3cc(c4O[C@@H]3O[C@H](CO)[C@@H](O)[C@H](O)[C@H]3O[C@H]3C[C@](C)(N)[C@H](O)[C@H](C)O3)Oc3ccc(cc3Cl)[C@H]2O)c2ccc(O)c(c2)-c2c(O)cc(O)cc21)C(C)C)[C@@H](C)CC)C(C)C)C(C)C)C(=O)N[C@@H](Cc1c[nH]c2ccccc12)C(=O)N[C@@H](CCCNC(=N)N)C(=O)N[C@@H](CCCNC(=N)N)C(N)=O` has an MIC [1] of 4 µg/mL (≈ 1.35 µM), an MIC [2] of 4 µg/mL (≈ 1.35 µM) and an MIC [3] of 4 µg/mL (≈ 1.35 µM). For the same compound, the MIC [4] was 32 µg/mL (≈ 10.8 µM), the MBIC [5] was 4 µg/mL and the MBIC [6] was 4 µg/mL. For the same compound, the MBIC [7] was 8 µg/mL, the MBIC [8] was 32 µg/mL and the MBEC [9] was 8 µg/mL. The MBEC [10] was 8 µg/mL, the MBEC [11] was 8 µg/mL and the MBEC [12] was 64 µg/mL. It also gave an Activity [13] of 80%, an Activity [14] of 80% and an Activity [15] of 80%. For the same compound, the Activity [16] was “inactive”, the Activity [17] was “Active” and the Activity [18] was over 90%. For the same compound, the Activity [19] was “inactive”, the Activity [20] was “Active” and the Activity [21] was “Non-Toxic”. The Activity [22] was “Active”, the Activity [23] was 40% and the Activity [24] was 40%. The Activity [25] was “Active”, the Activity [26] was “Active” and the Activity [27] was “Active”. The Activity [28] was “Non-Toxic”, the Activity [29] was 90% and the Activity [30] was “Non-Toxic”.
For `CC[C@H](C)[C@H](NC(=O)[C@H](CCCNC(=N)N)NC(=O)[C@@H](NC(=O)[C@H](C)NC(=O)[C@@H](NC(=O)[C@@H](NC(=O)[C@H](CC(C)C)NC(=O)[C@H](CCCNC(=N)N)NC(=O)[C@@H](N)C(C)C)[C@@H](C)CC)C(C)C)C(C)C)C(=O)N[C@@H](Cc1c[nH]c2ccccc12)C(=O)N[C@@H](CCCNC(=N)N)C(=O)N[C@@H](CCCNC(=N)N)C(N)=O` (H-VRLIVAVRIWRR-NH2), the MIC [1] was 16 µg/mL (≈ 10.4 µM), the MIC [2] was 16 µg/mL (≈ 10.4 µM) and the MIC [3] was 16 µg/mL (≈ 10.4 µM). It also gave an MIC [4] of over 64 µg/mL, an MBIC [7] of 16 µg/mL and an MBIC [8] of over 64 µg/mL. For the same compound, the MBEC [11] was 16 µg/mL, the MBEC [12] was over 128 µg/mL and the Activity [18] was over 75%. The Activity [23] was 40%, the Activity [25] was “Active” and the Activity [26] was “inactive”. The “fold change (FC)” value [30] was over 1000.
`CCCCCCCCCCCCCCCC[N+](C)(C)Cc1ccccc1.[Cl-]` [CETALKONIUM CHLORIDE] gave an MIC [1] of 2 µg/mL, an MIC [2] of 2 µg/mL and an MIC [3] of 4 µg/mL. It also gave an MIC [4] of over 64 µg/mL, an MBIC [5] of 4 µg/mL and an MBIC [6] of 4 µg/mL. It also gave an MBIC [7] of 4 µg/mL, an MBIC [8] of over 64 µg/mL and an MBEC [9] of 8 µg/mL. It also gave an MBEC [11] of 16 µg/mL and an MBEC [12] of over 128 µg/mL.
In the case of `CN[C@H](CC(C)C)C(=O)N[C@H]1C(=O)N[C@@H](CC(N)=O)C(=O)N[C@H]2C(=O)N[C@H]3C(=O)N[C@H](C(=O)N[C@H](C(=O)O)c4cc(O)cc(O)c4-c4cc3ccc4O)[C@H](O)c3ccc(c(Cl)c3)Oc3cc2cc(c3O[C@@H]2O[C@H](CO)[C@@H](O)[C@H](O)[C@H]2O[C@H]2C[C@](C)(N)[C@H](O)[C@H](C)O2)Oc2ccc(cc2Cl)[C@H]1O` [VANCOMYCIN], the MIC [4] is reported as over 128 µg/mL, the MBIC [5] is reported as 2 µg/mL and the MBIC [6] is reported as 2 µg/mL. For the same compound, the MBIC [7] was 2 µg/mL, the MBIC [8] was over 128 µg/mL and the MBEC [9] was over 128 µg/mL. For the same compound, the MBEC [10] was over 128 µg/mL, the MBEC [11] was over 128 µg/mL and the MBEC [12] was over 128 µg/mL. For the same compound, the Activity [18] was under 25%, the Activity [31] was “inactive” and the Activity [24] was 5%. The Activity [25] was “Active”, the Activity [26] was “inactive” and the Activity [32] was “Non-Toxic”. The Activity [33] was “Non-Toxic”.
